In patent publication US6340455B1, “Testkit and method” (Peridoc AB, priority 1996, dated 2002):

System: individuals (patients with severe marginal periodontitis, healthy control individuals)
Assay: Skin Prick Test with Lipid A
Type: in vivo, human
Details: for % + with 0.1 mg Lipid A / % + with 1 mg Lipid A: result registered after 18 to 24 hours
Protocol: Skin Prick Test with Lipid A was performed on three groups of individuals:
Patients with severe marginal periodontitis which responds to treatment.
Healthy control individuals without marginal periodontitis.
(The test was performed according to a routine procedure as described in Aas K, Backman A, Berlin L, Weeke B. Standardization of allergen extracts with appropriate methods. The combined use of skin prick testing and standardization of allergen extracts. Acta Allergol 1978; 33:238-240, and in Malling H-J. The skin prick testing and the use of histamine references. Allergy 1984; 39:596-601).
Patient and disease characteristics for the three groups can be found in Table 1 below. GI (gingival index) was used as measure of active disease. […] The test substance was Lipid A dissolved in water (0.1 mg/ml and 1 mg/ml). Histamine (10 mg/ml in water) and water served as positive and negative controls, respectively. The result was registered after 18 to 24 hours.
Students t-test was employed to test levels of significance for differences between test and control groups.

[1] = healthy control individuals without marginal periodontitis, n=16
[2] = patients with severe marginal periodontitis which responds to treatment (GI ≦ 20), n=38
[3] = refractory patients: severe marginal periodontitis not responding to treatment (GI > 20), n=14

Row | Molecule | % + with 0.1 mg Lipid A [1] | % + with 1 mg Lipid A [1] | % + with 0.1 mg Lipid A [2] | % + with 1 mg Lipid A [2] | response to Lipid A in skin prick test (in words) (refractory patients (severe marginal periodontitis not responding to treatment)) | % + with 0.1 mg Lipid A [3] | % + with 1 mg Lipid A [3] | skin prick reaction (positive/negative) (all individuals of the three groups, histamine 10 mg/ml in water, positive control)
1 | Lipid A | 18.8% | 50.0% | 21.1% | 57.9% | almost no positive response | 7.1% | 7.1% | –
2 | NCCc1c[nH]cn1 [histamine] | – | – | – | – | – | – | – | reacted positively
